{"source": "patent US8296071B2", "about": "“Methods for uniformly treating biological samples with electromagnetic radiation” (Terumo BCT Biotechnologies, LLC, priority 2004, dated 2012)", "key": {"[1]": {"system": "Bovine viral diarrhea virus (BVDV)", "test": "Pathogen reduction of BVDV in platelet and plasma-containing fluids (photosensitizer + electromagnetic radiation), TCID50", "assay_type": "cell-based", "details": "fixed net radiant energy 3 Joules cm^−2", "text": "FIG. 4A provides a bar graph showing the average reduction of BVDV pathogen for fluid samples having two different volumes held in containers having nontransmissive labels and exposed to a fixed net radiant energy. […] FIG. 4B provides a bar graph showing the average reduction of BVDV pathogen for fluid samples having two different volumes held in containers not having nontransmissive labels and exposed to a fixed net radiant energy equal to 3 Joules cm^−2. […] The error bars shown in FIGS. 4A and 4B correspond to standard deviations (1σ) corresponding to six independent measurements at each volume."}, "[2]": {"system": "porcine parvovirus virus (PPV)", "test": "Pathogen reduction of PPV in platelet and plasma-containing samples at two agitation rates", "details": "net radiant energy by Equation V", "description": "Platelet and plasma-containing fluid samples having volumes selected over the range of about 200 ml to about 400 ml were illuminated in 1 liter fixed volume, partially transparent containers.\nElectromagnetic radiation was provided by two banks of six mercury vapor fluorescent lamps (model number XG25T8E; distributed by Ushio Nichia NP-803 phosphor) positioned above and below the fluid containers. This optical geometry defines two photoreactive layers having thicknesses equal to approximately 1 millimeter corresponding to the top and bottom illuminated surfaces of the fluid. […]\nBovine viral diarrhea virus (BVDV), porcine parvovirus virus (PPV), hepatitis A virus (HAV) and S. aureus bacteria were assayed before and after illumination using TCID50 or plating methods to provide quantitative measurements of the extent of pathogen reduction achieved.\nThe effect of agitation rate on the extent of pathogen reduction achieved upon treatment of fluids with electromagnetic radiation was also studied by varying the agitation rate provided to the sample container during illumination. Platelet and plasma-containing samples were exposed to net radiant energies calculated using Equation V. Samples were mixed during illumination using two different agitation rates: 120 cycles per minute and 20 cycles per minute."}}, "data": [{"substance": "7,8-dimethyl-10-ribityl isoalloxazine", "values": [{"measurement": "average reduction of BVDV pathogen", "setting": "[1]; about 230 ml sample, containers with nontransmissive labels", "result": "about 2.0 log"}, {"measurement": "average reduction of BVDV pathogen", "setting": "[1]; about 230 ml sample, containers without nontransmissive labels", "result": "about 2.3 log"}, {"measurement": "average reduction of BVDV pathogen", "setting": "[1]; about 280 ml sample, containers with nontransmissive labels", "result": "about 1.4 log"}, {"measurement": "average reduction of BVDV pathogen", "setting": "[1]; about 280 ml sample, containers without nontransmissive labels", "result": "about 1.9 log"}, {"measurement": "log decrease in the biological activity of PPV pathogens", "setting": "[2]; agitation rate 20 cycles per minute", "result": 0.72, "unit": "log"}, {"measurement": "log decrease in the biological activity of PPV pathogens", "setting": "[2]; agitation rate 120 cycles per minute", "result": 4.65, "unit": "log"}]}]}
